Laboratory results published in ChEMBL document CHEMBL2176892, “Conjugation of quinones with natural polyamines: toward an expanded antitrypanosomatid profile” (J Med Chem, 2012).
The source made the active and inactive calls. The calls are words filed in the database; no cut-off is given here.

Columns and labels:
[1] = target: T1, Trypanothione reductase (Trypanosoma brucei brucei, UniProt P39051); assay: Mixed type inhibition of Trypanosoma brucei TR using varying levels of trypanothione disulfide assessed as inhibition constant for enzyme-substrate-inhibitor complex by Lineweaver-Burk plot
[2] = target: T1, Trypanothione reductase; assay: Mixed type inhibition of Trypanosoma brucei TR using varying levels of trypanothione disulfide assessed as inhibition constant for enzyme-inhibitor complex by Lineweaver-Burk plot
[3] = target: T1, Trypanothione reductase; assay: Noncompetitive inhibition of Trypanosoma brucei TR using varying levels of trypanothione disulfide by Lineweaver-Burk plot
[4] = system: Leishmania donovani; assay: Induction of morphological damage in promastigote form of Leishmania donovani MHOM/ET/67/L82 assessed as accumulation of vesicular material inside the flagellar pocket at 5 uM after 4 hrs by transmission electron microscopy; type: functional, organism-based
[5] = system: Leishmania donovani; assay: Reduction in free cytoplasmic ATP level in promastigote form of Leishmania donovani 3-Luc at 2.5 to 25 uM after 15 to 20 mins by luminescence assay; type: functional, organism-based
[6] = system: Leishmania donovani; assay: Reduction in mitochondrial electrochemical potential in promastigote form of Leishmania donovani MHOM/ET/67/L82 assessed as reduction in Rhodamine 123 fluorescence at 25 uM after 4 hrs by flow cytometry; type: functional, organism-based
[7] = target: Trypanothione reductase (Trypanosoma brucei brucei) (UniProt P39051); assay: Induction of intrinsic oxidase activity of Trypanosoma brucei TR at 5 uM
[8] = Selectivity index, ratio of IC50 for rat L6 cells to IC50 for axenic amastigote form of Leishmania donovani strain MHOM-ET-67/L82; type: toxicity, cell-based; details: read-out: Ratio IC50
[9] = Selectivity index, ratio of IC50 for rat L6 cells to IC50 for promastigote form of Leishmania donovani strain MHOM/SD/00/1S-2D; type: toxicity, cell-based; details: read-out: Ratio IC50
[10] = Selectivity index, ratio of IC50 for rat L6 cells to IC50 for intracellular amastigote form of Trypanosoma cruzi Tulahuen strain C2C4; type: toxicity, cell-based; details: read-out: Ratio IC50
[11] = Selectivity index, ratio of IC50 for rat L6 cells to IC50 for trypomastigote form of Trypanosoma brucei rhodesiense strain STIB 900; type: toxicity, cell-based; details: read-out: Ratio IC50
[12] = system: L6; assay: Cytotoxicity against rat L6 cells assessed as growth inhibition after 72 hrs by inverted microscopy; type: cell-based; details: L6, 72 h
[13] = system: Leishmania donovani; assay: Antitrypanosomal activity against promastigote form of Leishmania donovani MHOM/SD/00/1S-2D assessed as growth inhibition after 72 hrs by inverted microscopy; type: functional, organism-based
[14] = system: Leishmania donovani; assay: Antitrypanosomal activity against axenic amastigote form of Leishmania donovani MHOM-ET-67/L82 assessed as growth inhibition after 72 hrs by inverted microscopy; type: functional, organism-based; details: MHOM-ET-67/L82, 72 h
[15] = system: Trypanosoma cruzi; assay: Antitrypanosomal activity against intracellular amastigote form of Trypanosoma cruzi Tulahuen C2C4 infected in rat L6 cells assessed as growth inhibition after 92 hrs by inverted microscopy; type: functional, organism-based; details: Tulahuen C2C4, L6, 92 h
[16] = system: Trypanosoma brucei rhodesiense; assay: Antitrypanosomal activity against trypomastigote form of Trypanosoma brucei rhodesiense STIB 900 assessed as growth inhibition after 72 hrs by microplate fluorometry; type: functional, organism-based; details: STIB 900, 72 h
[17] = target: Trypanothione reductase (Trypanosoma brucei brucei) (UniProt P39051); assay: Inhibition of Trypanosoma brucei TR using 40 to 100 uM trypanothione disulfide assessed as remaining activity at 5 uM
[18] = system: Leishmania donovani; assay: Induction of morphological damage in promastigote form of Leishmania donovani MHOM/ET/67/L82 assessed as mitochondrial swelling at 5 uM after 4 hrs by transmission electron microscopy; type: functional, organism-based

T1 sequence (P39051 whole entry): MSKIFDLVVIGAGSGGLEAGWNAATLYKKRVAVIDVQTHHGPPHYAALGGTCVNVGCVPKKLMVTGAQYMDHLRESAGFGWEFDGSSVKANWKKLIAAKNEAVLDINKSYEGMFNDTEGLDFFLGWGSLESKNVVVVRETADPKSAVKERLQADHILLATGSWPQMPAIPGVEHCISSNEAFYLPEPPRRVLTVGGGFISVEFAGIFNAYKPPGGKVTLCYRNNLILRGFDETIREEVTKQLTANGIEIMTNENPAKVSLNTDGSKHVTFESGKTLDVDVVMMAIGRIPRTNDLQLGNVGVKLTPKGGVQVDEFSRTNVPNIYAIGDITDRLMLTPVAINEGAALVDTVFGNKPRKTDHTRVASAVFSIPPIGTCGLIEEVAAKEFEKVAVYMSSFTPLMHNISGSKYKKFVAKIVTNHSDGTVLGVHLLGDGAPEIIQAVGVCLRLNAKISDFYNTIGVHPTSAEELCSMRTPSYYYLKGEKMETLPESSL
Trypanothione reductase (Trypanosoma brucei brucei), sequence (P39051 whole entry, looked up): as the sequence (P39051 whole entry) above

| Ki [1] [µM] | Ki [2] [µM] | Ki [3] [µM] | Activity [7] | IC50 [15] [µM] | IC50 [16] [µM] | Activity [17] [%] | Structure (SMILES) | Activity [4] | Activity [5] | Activity [6] | selectivity ratio [8] | selectivity ratio [9] | selectivity ratio [10] | selectivity ratio [11] | IC50 [12] [µM] | IC50 [13] [µM] | IC50 [14] [µM] | Activity [18] |
| --- | --- | --- | --- | --- | --- | --- | --- | --- | --- | --- | --- | --- | --- | --- | --- | --- | --- | --- |
| 3.9 | 3.4 | 3.4 | inactive | 17.4 | 0.07 | 36 | NCCCCCNCc1ccc(OC2=CC(=O)c3cc4ccccc4cc3C2=O)cc1 | Active | Dose-dependent effect | Active | 2.06 | 1.39 | 0.29 | 72 | 5.04 | 3.62 | 2.44 |  |
|  |  |  |  |  |  |  | Nc1nc(N)nc(Nc2ccc([As]3SCC(CO)S3)cc2)n1 (stereo unspecified) [MELARSOPROL] |  |  |  |  |  |  | 1830 | 18.3 |  |  |  |
|  |  |  |  | 34.8 | 0.32 |  | NCCCNCCCCNCCCNCc1ccc(OC2=CC(=O)c3cc4ccccc4cc3C2=O)cc1 |  |  |  | 2.15 | 0.45 | 0.21 | 22.5 | 7.21 | 16.1 | 3.35 |  |
|  |  |  | inactive | 18.6 | 0.35 | 36 | NCCCCNCc1ccc(OC2=CC(=O)c3cc4ccccc4cc3C2=O)cc1 |  |  |  | 1.98 | 1.56 | 0.3 | 16 | 5.6 | 3.59 | 2.82 |  |
|  |  |  |  |  |  |  | O=C(Cn1ccnc1[N+](=O)[O-])NCc1ccccc1 [BENZNIDAZOLE] |  |  |  |  |  |  |  | > 384 |  |  |  |
|  |  |  |  |  |  |  | CCCCCCCCCCCCCCCCOP(=O)([O-])OCC[N+](C)(C)C [MILTEFOSINE] |  |  |  | 462 |  |  |  | 143 |  |  |  |
|  |  |  |  | 1.26 |  | 51 | O=C1C=C(Oc2ccccc2)C(=O)c2ccccc21 |  |  |  | 4.7 | 8 | 4.7 | 74 |  | 0.74 |  |  |
|  |  |  |  | 17.4 | 0.24 |  | NCCCNCCCNCCCNCc1ccc(OC2=CC(=O)c3cc4ccccc4cc3C2=O)cc1 |  |  |  | 2.03 | 0.53 | 0.29 | 20.3 | 4.87 | 9.08 | 2.4 |  |
|  |  |  | inactive | 39.4 | 0.23 | 36 | NCCCNCCCCNCc1ccc(OC2=CC(=O)c3cc4ccccc4cc3C2=O)cc1 |  |  |  | 2.01 | 0.41 | 0.16 | 27.4 | 6.29 | 15.4 | 3.13 |  |
|  |  |  |  |  |  |  | COc1cc([C@@H]2c3cc4c(cc3[C@H](O)[C@H]3COC(=O)[C@H]23)OCO4)cc(OC)c1OC [PODOFILOX] |  |  |  |  |  |  |  | 0.0017 |  |  |  |
|  |  |  | Active | 24.1 | 0.45 | 36 | NCCCNCCCCNCCCNCc1ccc(OC2=CC(=O)c3ccccc3C2=O)cc1 |  |  |  | 1.22 | < 0.23 | 0.29 | 15.7 | 7.05 | > 30 | 5.79 |  |
|  |  |  |  | 52.2 | 0.72 |  | NCCCNCCCCNCc1ccc(OC2=CC(=O)c3ccccc3C2=O)cc1 |  |  |  | 1.28 | < 0.31 | 0.18 | 12.8 | 9.18 | > 30 | 7.17 |  |
| 4.6 | 2.8 |  | Active | 20 | 0.26 | 36 | NCCCCCNCc1ccc(OC2=CC(=O)c3ccccc3C2=O)cc1 |  |  |  | 1.37 | 1.18 | 0.45 | 35 | 9.1 | 7.72 | 6.63 |  |
|  |  |  |  | 18.8 | 0.46 |  | NCCCNCCCNCCCNCc1ccc(OC2=CC(=O)c3ccccc3C2=O)cc1 |  |  |  | 0.89 | < 0.21 | 0.34 | 14 | 6.46 | > 30 | 7.27 |  |
|  |  |  |  | 4.66 |  | 51 | O=C1C=C(Oc2ccccc2)C(=O)c2cc3ccccc3cc21 |  | Dose-dependent effect | Active | 2.91 | 0.35 | 0.21 | 19.8 |  | 2.81 |  | Active |
|  |  |  |  | 30 | 0.22 |  | NCCCCNCc1ccc(OC2=CC(=O)c3ccccc3C2=O)cc1 |  |  |  | 1.63 | 1.27 | 0.37 | 50.5 | 11.1 | 8.72 | 6.81 |  |
